Laboratory results taken from patent publication US10294302B2, “Therapeutic method and medicament for HTLV-1 associated myelopathy” (priority 2012, dated 2019).
Like-named read-outs stand apart in the source and are kept apart here.

Legend:
[1] = tested on: HTLV-1 proviral DNA in PBMCs derived from asymptomatic HTLV-1 carriers (ACs); test: Amount of HTLV-1 proviral DNA in PBMCs by real time-PCR (asymptomatic carriers); type: cell-based; conditions: 1 μg/mL; 7 days; AC N=8, FIG. 2F
Experimental: The amount of HTLV-1 proviral DNA was quantified in accordance with the method described in Yamano et al (Blood, 2002; 99: 88-94) and Nagai et al (J. Infectious Diseases; 2001; 183: 197-205).
At 7 days after cultivation, cells were recovered from each well, and the recovered cells were suspended in a buffer containing 50 mM Tris-HCl (pH 8.0), 20 mM EDTA, 0.1 M NaCl and 1% SDS (hereinafter, referred to as lysis buffer), and then 150 μg/mL of proteinase K (manufactured by Wako Pure Chemical Industries, Ltd.) was added thereto, followed by shaking at 55° C. overnight. Then, genomic DNAs were extracted from PBMCs of HAM patients using phenol/chloroform.
(§1) Real time-polymerase chain reaction (hereinafter, abbreviated to PCR) was performed using the extracted genomic DNA as a template, and TaqMan probes for HTLV-1 pX region and human β-actin, and a primer set of each gene.
As a standard sample of HTLV-1 pX, a genomic DNA derived from HTLV-1 infected rat TARL2 cell line where 1 copy/cell of HTLV-1 pX region was integrated was used, and as a standard sample of β-actin, a genomic DNA derived from PBMC of a normal person was used to perform PCR at the same time and to obtain a standard curve. The copy numbers of pX and β-actin of each sample were calculated using the standard curve, and the amount of HTLV-1 proviral DNA was determined by the following Equation (FIGS. 2A and 2B). […]

[2] = tested on: PBMCs derived from HAM patients; test: Spontaneous cell proliferation of PBMCs by 3H-thymidine up-take; type: cell-based, human; conditions: for cell proliferation compared to non-drug treatment: Example 3, FIGS. 3A and 3B
From the text: PBMCs of HAM patients and asymptomatic HTLV-1 carriers (AC) were isolated from peripheral bloods that were collected from 9 HAM patients and 8 asymptomatic HTLV-1 carriers by Ficoll density gradient centrifugation, and frozen and stored in liquid nitrogen until assay. The isolated PBMCs were suspended in an RPMI1640 medium containing 10% fetal bovine serum (hereinafter, abbreviated to FBS), 1% penicillin and 1% streptomycin (manufactured by Wako Pure Chemical Industries, Ltd.) (hereinafter, abbreviated to RPMI medium) without proliferation stimulation, and seeded at a density of 1×10^5 cells/100 μL/well in a 96-well round bottom plate. A well added with 1 μg/mL of prednisolone (PSL) was prepared as a positive control, and wells added with 0-10 μg/mL of anti-human CCR4 chimeric antibody KM2760 were prepared as a subject antibody. Cultivation was performed under the conditions of 37° C. and 5% CO2 for 6 days.
After cultivation, 1 μCi ^3H-thymidine was added to each well, and further cultured for 16 hours. After cultivation, the cells were recovered, and specific radioactivity was measured using a liquid scintillation counter (Micro Beta) to determine cell proliferation rate (%) (FIGS. 1A, 1B). The up-take of ^3H-thymidine in the non-drug-treated well was taken as 100%, and the ratio was determined.
In the same manner as in Example 1, PBMCs isolated from the peripheral blood of HAM patient were seeded in a 96-well bottom plate. A well added with 0.1 or 1 μg/mL of prednisolone and wells added with 0.1 μg/mL prednisolone+0.01-10 μg/mL of anti-human CCR4 chimeric antibody KM2760 were prepared to perform cultivation.
For cell proliferation assay by ^3H-thymidine up-take, ^3H-thymidine was added at 6 days after cultivation in the same manner as in Example 1, and further cultured for 16 hours. Further, the amount of HTLV-1 proviral DNA was determined at 7 days after cultivation in the same manner as in Example 2.
(§2) In all assays, the proliferation rate (FIGS. 3A and 3B) or the amount of HTLV-1 proviral DNA (FIGS. 3C and 3D) was represented as a percentage, when the well treated with no drug was taken as 100%.
(§3) Inhibitory effects of anti-human CCR4 chimeric antibody KM2760 and anti-human CCR4 humanized antibody Poteligeo® (manufactured by Kyowa Hakko Kirin co., Ltd.) on spontaneous cell proliferation, the amount of HTLV-1 provirus DNA, and the cytokine production in PBMCs of HAM patients (N=11) were examined in the same manner as in Examples 1, 2, and 4.

[3] = tested on: TNF-α production in PBMCs of HAM patients; test: TNF-α production in PBMC culture supernatant (Cytometric Bead Array); type: cell-based, human; conditions: 7 days culture; combination: 0.1 μg/mL PSL+0.01 μg/mL-10 μg/mL KM2760 versus KM2760 alone
Experimental: (§4) In order to examine the inhibitory effect of anti-human CCR4 antibody and adrenocorticosteroid drug on inflammatory cytokine production in PBMCs of HAM patients, PBMCs of HAM patients were cultured, and the concentrations of IFN-γ, TNF-α, IL-2, IL-6 and IL-10 in the culture supernatants were measured.
(§5) PBMCs of HAM patients were cultured for 7 days in the same manner as in Example 2, and the culture supernatants were recovered after cultivation. The concentrations of the cytokines were measured using kits for measuring cytokine concentrations (all manufactured by BD Biosciences), Human IFNγ Flex kit (cat. 560111), Human TNFα Flex kit (cat. 560122), Human IL-6 Flex kit (cat. 558276), Human IL-2 Flex kit (cat. 558270) and Human IL-10 Flex kit (cat. 558274) by BD™ Cytometric Bead Array (CBA) (FIGS. 4A, 4B, 5A, 5B, 6A, 6B, 7A, 7B, 8A and 8B).
as §3

[4] = tested on: HTLV-1 proviral DNA in PBMCs derived from HAM patients; test: Amount of HTLV-1 proviral DNA in PBMCs by real time-PCR; type: cell-based
Experimental: Then, genomic DNAs were extracted from PBMCs of HAM patients using phenol/chloroform.
as §1
As a standard sample of HTLV-1 pX, a genomic DNA derived from HTLV-1 infected rat TARL2 cell line where 1 copy/cell of HTLV-1 pX region was integrated was used, and as a standard sample of β-actin, a genomic DNA derived from PBMC of a normal person was used to perform PCR at the same time and to obtain a standard curve. The copy numbers of pX and β-actin of each sample were calculated using the standard curve, and the amount of HTLV-1 proviral DNA was determined by the following Equation (FIGS. 2A and 2B). Amount of HTLV-1 proviral DNA: copy number of HTLV-1(pX)/100 PBMC cells=(copy number of pX)/(copy number of β-actin/2)×100
Cultivation was performed in the same manner, and the absolute amount of the HTLV-1 proviral DNA per well was determined (FIGS. 2C and 2D).
In the same manner as above, 1×10^−6 μg/mL-10 μg/mL of KM2760 were added to culture PBMCs derived from HAM patients, and at 7 days after cultivation, the amounts of HTLV-1 proviral DNA were determined (FIG. 2E).
as §2

[5] = tested on: IL-6 production in PBMCs of HAM patients; test: IL-6 production in PBMC culture supernatant (Cytometric Bead Array); type: cell-based, human; conditions: 7 days culture; combination: 0.1 μg/mL PSL+0.01 μg/mL-10 μg/mL KM2760 versus KM2760 alone
Experimental: as §4, §5, §3

[6] = tested on: IFN-γ production in PBMCs of HAM patients; test: IFN-γ production in PBMC culture supernatant (Cytometric Bead Array); type: cell-based, human; conditions: 7 days culture; combination: 0.1 μg/mL PSL+0.01 μg/mL-10 μg/mL KM2760 versus KM2760 alone
Experimental: as §4, §5, §3

[7] = cited from earlier work
[8] = tested on: PBMCs derived from HAM patients; test: Actual number of cells after cultivation of PBMCs; type: cell-based, human; conditions: 1 μg/mL; 7 days after cultivation; FIG. 1C
Experimental: In the same manner, PBMCs derived from HAM patients were cultured by addition of 1×10^−6 μg/mL-10 μg/mL of KM2760, and at 7 days after cultivation, the actual number of cells was counted (FIG. 1C).

[9] = tested on: IL-2 production in PBMCs of HAM patients; test: IL-2 production in PBMC culture supernatant (Cytometric Bead Array); type: cell-based, human; conditions: 7 days culture; combination: 0.1 μg/mL PSL+0.01 μg/mL-10 μg/mL KM2760 versus KM2760 alone
Experimental: as §4, §5, §3

[10] = tested on: IL-10 production in PBMCs of HAM patients; test: IL-10 production in PBMC culture supernatant (Cytometric Bead Array); type: cell-based, human; conditions: 7 days culture; combination: 0.1 μg/mL PSL+0.01 μg/mL-10 μg/mL KM2760 versus KM2760 alone
Experimental: as §4, §5, §3

[11] = PSL 1 μg/mL, antibody up to 10 μg/mL, 7 days, compared to non-drug treatment

## C[C@]12C=CC(=O)C=C1CC[C@@H]1[C@@H]2[C@@H](O)C[C@@]2(C)[C@H]1CC[C@]2(O)C(=O)CO [PSL, prednisolone]
[1]
  effect on the amount of proviral DNA (in words): almost didn't reduce the amount of proviral DNA
[2]; 0.1 μg/mL
  cell proliferation compared to non-drug treatment: approximately 70%
[2]; 1 μg/mL
  cell proliferation compared to non-drug treatment: ~50%
[2]; Homo sapiens, PBMC, 1 μg/mL, 6 days + 16 h 3H-thymidine, 9 HAM patients, FIG. 1B, read-out: cell proliferation inhibition compared to non-drug treatment
  inhibition at 1 µg/mL: ~50%
[3]
  inhibition of TNF-α production (in words): inhibited the production of all cytokines
[4]; 1 μg/mL, 7 days, FIG. 2E
  effect on the amount of proviral DNA (in words): almost didn't reduce the amount of proviral DNA
[4]; 1 μg/mL, Example 3, FIGS. 3E and 3F
  absolute amount of HTLV-1 proviral DNA of each well compared to non-drug treatment: approximately 50%
[4]; 1 μg/mL, FIGS. 2C and 2D
  absolute amount of HTLV-1 proviral DNA per well, fraction of non-drug treatment: ⅓
[4]; 0.1 or 1 μg/mL, Example 3
  effect on the amount of HTLV-1 proviral DNA (in words): almost didn't reduce the amount of HTLV-1 proviral DNA
[4]; [11]
  effect on the amount of HTLV-1 proviral DNA (in words): did not show the effect of reducing the amount of HTLV-1 proviral DNA
[5]
  inhibition of IL-6 production (in words): inhibited the production of all cytokines
[6]
  inhibition of IFN-γ production (in words): inhibited the production of all cytokines
[7]; oral administration of 50 mg to a clinical patient
  blood concentration: approximately 1 μg/mL
[7]; oral administration of a low dose of 5 mg to a clinical patient
  blood concentration: approximately 0.1 μg/mL
[8]
  number of cells compared to non-drug treatment: approximately 50%
[9]
  inhibition of IL-2 production (in words): inhibited the production of all cytokines

B1: Mogamulizumab (antibody, chains of the INN, looked up, V domains shown)
VH: EVQLVESGGDLVQPGRSLRLSCAASGFIFSNYGMSWVRQAPGKGLEWVATISSASTYSYYPDSVKGRFTISRDNAKNSLYLQMNSLRVEDTALYYCGRHSDGNFAFGYWGQGTLVTVSS
VL: DVLMTQSPLSLPVTPGEPASISCRSSRNIVHINGDTYLEWYLQKPGQSPQLLIYKVSNRFSGVPDRFSGSGSGTDFTLKISRVEAEDVGVYYCFQGSLLPWTFGQGTKVEIK
notes: anti-human CCR4 humanized antibody, manufactured by Kyowa Hakko Kirin
[10]
  inhibition of IL-10 production (in words): inhibited
[2]; antibody 0-10 μg/mL, 3H-thymidine up-take
  inhibition of spontaneous cell proliferation (in words): inhibited
[3]
  inhibition of TNF-α production (in words): inhibited
[4]; [11]
  effect on the amount of HTLV-1 proviral DNA (in words): inhibited
[5]
  inhibition of IL-6 production (in words): inhibited
[6]
  inhibition of IFN-γ production (in words): inhibited
[9]
  inhibition of IL-2 production (in words): inhibited
